In brackets after ≈: the same amount, converted by molar mass.
How the values were obtained:
fACC2 = fACC2 (UniProt Q00955); experiment: In vitro ACC2 inhibition assay (ADP-Glo), fungal ACC2; type: biochemical
How it was run: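 ADP-Glo luminescent ADP detection with 5 nM ACC2, 20 μM ATP, 20 μM acetyl-CoA, 12 mM NaHCO3, 2 mM DTT, 5% DMSO; compound (30 μM-0.00051 μM, 11 points) preincubated 15 min, reaction 60 min at room temperature. Percent inhibition against DMSO and positive controls; IC50 by four-parameter nonlinear fit.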

C. krusei ATCC 6258 = experiment: Anti-Fungal (Candida) Activity Assay, broth microtiter MIC; type: cell-based, Candida krusei; conditions: Pichia kudriavzevii, ATCC6258, 48 h, 3 replicates, MIC read at 48 h
How it was run: (§1)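 Broth microdilution per CLSI M27-A3 in RPMI 1640 + MOPS, at a final inoculum of 2.5×10^3 CFU/mL. Compound DMSO stocks were diluted in water to a 128 μg/mL working solution. MIC was read visually against the growth control at 48 h.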

[1] = tested on: C. parapsilosis ATCC 22019; experiment: as above; type: cell-based; conditions: Lodderomyces parapsilosis, ATCC22019, 48 h, 3 replicates, MIC read at 48 h
How it was run: as §1

C. albicans ATCC 90028 = experiment: as above; type: cell-based; conditions: ATCC90028, 48 h, 3 replicates, MIC read at 48 h
How it was run: as §1

Sequence of fACC2 (Q00955 whole entry): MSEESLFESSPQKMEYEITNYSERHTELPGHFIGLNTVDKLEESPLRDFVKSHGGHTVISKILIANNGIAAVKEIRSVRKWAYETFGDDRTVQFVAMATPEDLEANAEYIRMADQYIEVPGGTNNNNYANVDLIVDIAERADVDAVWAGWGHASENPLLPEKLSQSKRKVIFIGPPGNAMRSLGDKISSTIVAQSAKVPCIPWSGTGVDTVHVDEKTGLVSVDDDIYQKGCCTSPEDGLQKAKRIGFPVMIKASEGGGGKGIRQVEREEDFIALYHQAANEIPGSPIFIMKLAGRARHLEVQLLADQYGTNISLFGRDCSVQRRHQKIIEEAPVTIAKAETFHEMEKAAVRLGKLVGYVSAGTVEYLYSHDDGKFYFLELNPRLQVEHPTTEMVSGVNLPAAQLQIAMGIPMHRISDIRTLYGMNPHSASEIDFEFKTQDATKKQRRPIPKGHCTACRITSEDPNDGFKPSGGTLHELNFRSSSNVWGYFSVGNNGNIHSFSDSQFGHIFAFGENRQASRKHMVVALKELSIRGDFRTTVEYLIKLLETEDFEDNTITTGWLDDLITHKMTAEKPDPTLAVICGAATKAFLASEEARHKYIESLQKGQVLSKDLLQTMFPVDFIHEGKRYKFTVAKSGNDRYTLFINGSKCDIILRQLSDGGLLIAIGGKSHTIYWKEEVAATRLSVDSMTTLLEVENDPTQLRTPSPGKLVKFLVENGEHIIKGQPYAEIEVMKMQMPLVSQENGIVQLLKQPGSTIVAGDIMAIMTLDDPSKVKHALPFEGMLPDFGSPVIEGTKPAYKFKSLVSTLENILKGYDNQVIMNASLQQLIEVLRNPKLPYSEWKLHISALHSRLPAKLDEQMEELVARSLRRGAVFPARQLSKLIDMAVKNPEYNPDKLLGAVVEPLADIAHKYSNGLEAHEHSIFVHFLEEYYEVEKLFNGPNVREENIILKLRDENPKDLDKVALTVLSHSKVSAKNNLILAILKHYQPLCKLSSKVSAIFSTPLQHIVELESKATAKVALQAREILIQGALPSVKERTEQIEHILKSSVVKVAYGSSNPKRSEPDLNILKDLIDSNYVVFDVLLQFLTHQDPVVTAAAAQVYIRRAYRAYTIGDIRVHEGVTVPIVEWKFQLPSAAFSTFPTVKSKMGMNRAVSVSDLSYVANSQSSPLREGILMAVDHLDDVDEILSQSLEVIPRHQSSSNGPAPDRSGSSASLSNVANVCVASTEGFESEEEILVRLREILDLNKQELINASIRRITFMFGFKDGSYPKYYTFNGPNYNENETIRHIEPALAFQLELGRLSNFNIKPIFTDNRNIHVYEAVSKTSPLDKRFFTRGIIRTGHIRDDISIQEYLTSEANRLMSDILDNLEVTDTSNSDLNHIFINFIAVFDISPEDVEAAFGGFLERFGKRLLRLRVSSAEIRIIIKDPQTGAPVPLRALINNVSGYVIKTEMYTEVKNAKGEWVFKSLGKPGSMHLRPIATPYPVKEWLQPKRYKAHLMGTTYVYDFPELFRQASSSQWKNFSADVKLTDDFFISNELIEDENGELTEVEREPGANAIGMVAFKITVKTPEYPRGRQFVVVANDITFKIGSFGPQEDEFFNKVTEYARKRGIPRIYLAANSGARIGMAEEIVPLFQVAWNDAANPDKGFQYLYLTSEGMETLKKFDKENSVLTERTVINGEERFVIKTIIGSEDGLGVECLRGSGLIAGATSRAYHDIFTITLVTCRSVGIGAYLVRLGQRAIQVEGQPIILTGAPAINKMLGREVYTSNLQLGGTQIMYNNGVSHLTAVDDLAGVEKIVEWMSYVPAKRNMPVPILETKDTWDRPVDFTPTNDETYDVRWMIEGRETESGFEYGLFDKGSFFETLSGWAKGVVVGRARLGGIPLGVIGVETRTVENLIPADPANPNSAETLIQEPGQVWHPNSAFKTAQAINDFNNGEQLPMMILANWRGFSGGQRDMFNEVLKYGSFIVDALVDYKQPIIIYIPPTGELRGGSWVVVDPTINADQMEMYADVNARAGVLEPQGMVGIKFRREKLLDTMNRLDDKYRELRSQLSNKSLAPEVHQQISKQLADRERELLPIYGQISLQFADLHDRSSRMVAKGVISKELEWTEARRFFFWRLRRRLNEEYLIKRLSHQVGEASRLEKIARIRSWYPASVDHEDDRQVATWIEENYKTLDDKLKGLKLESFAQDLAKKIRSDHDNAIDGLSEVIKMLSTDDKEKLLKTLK

Row | SMILES | IC50 (fACC2; Table 2b (additional results)) [nM] | MIC (C. krusei ATCC 6258; Table 3b (additional results)) [µg/mL] | MIC ([1]; Table 3b (additional results)) [µg/mL] | MIC (C. albicans ATCC 90028; Table 3b (additional results)) [µg/mL] | IC50 (fACC2; Table 2a) [nM] | MIC (C. krusei ATCC 6258; Table 3a) [µg/mL] | MIC ([1]; Table 3a) [µg/mL] | MIC (C. albicans ATCC 90028; Table 3a) [µg/mL]
1 | CCOC(=O)c1sc2c(c1C)c(=O)n(C(C)(C)C(=O)NC(C)C)c(=O)n2C[C@H](OC[C@H](C)C#N)c1cc(F)ccc1OC [Compound I-34, ethyl 1-((R)-2-((R)-2-cyanopropoxy)-2-(5-fluoro-2-methoxyphenyl)ethyl)-3-(1-(isopropylamino)-2-methyl-1-oxopropan-2-yl)-5-methyl-2,4-dioxo-1,2,3,4-tetrahydrothieno[2,3-d]pyrimidine-6-carboxylate] | 0.3 to 3 | 2.1 to 4 (≈ 3.41 to 6.49 µM) | 2.1 to 4 (≈ 3.41 to 6.49 µM) | 0.25 to 1 (≈ 0.405 to 1.62 µM) | – | – | – | –
2 | CCOC(=O)c1sc2c(c1C)c(=O)n(C(C)(C)C(N)=O)c(=O)n2C[C@H](OCCOC)c1cc(F)ccc1OC [Compound I-10, (R)-ethyl 3-(1-amino-2-methyl-1-oxopropan-2-yl)-1-(2-(5-fluoro-2-methoxyphenyl)-2-(2-methoxyethoxy)ethyl)-5-methyl-2,4-dioxo-1,2,3,4-tetrahydrothieno[2,3-d]pyrimidine-6-carboxylate] | 3 to 10 | 2.1 to 4 (≈ 3.71 to 7.07 µM) | 2.1 to 4 (≈ 3.71 to 7.07 µM) | 2.1 to 4 (≈ 3.71 to 7.07 µM) | 3 to 10 | > 4.1 | > 4.1 | > 4.1
3 | CCOC(=O)c1sc2c(c1C)c(=O)n([C@@H](C)C(N)=O)c(=O)n2C[C@H](OCCC#N)c1cc(F)ccc1OC [Compound I-25, ethyl 3-((S)-1-amino-1-oxopropan-2-yl)-1-((R)-2-(2-cyanoethoxy)-2-(5-fluoro-2-methoxyphenyl)ethyl)-5-methyl-2,4-dioxo-1,2,3,4-tetrahydrothieno[2,3-d]pyrimidine-6-carboxylate] | 0.3 to 3 | 1.1 to 2 (≈ 2.01 to 3.66 µM) | 2.1 to 4 (≈ 3.84 to 7.32 µM) | 2.1 to 4 (≈ 3.84 to 7.32 µM) | – | – | – | –
4 | CCOC(=O)c1sc2c(c1C)c(=O)n(C(C)(C)C(=O)N1CCCC1)c(=O)n2C[C@H](O)c1cc(F)ccc1OC [Compound I-22, (R)-ethyl 1-(2-(5-fluoro-2-methoxyphenyl)-2-hydroxyethyl)-5-methyl-3-(2-methyl-1-oxo-1-(pyrrolidin-1-yl)propan-2-yl)-2,4-dioxo-1,2,3,4-tetrahydrothieno[2,3-d]pyrimidine-6-carboxylate] | 0.3 to 3 | 2.1 to 4 (≈ 3.74 to 7.12 µM) | 0.25 to 1 (≈ 0.445 to 1.78 µM) | 2.1 to 4 (≈ 3.74 to 7.12 µM) | – | – | – | –
5 | CCOC(=O)c1sc2c(c1C)c(=O)n(C(C)(C)C(=O)N1CCCC1)c(=O)n2C[C@H](OCCOC)c1cc(F)ccc1OC [Compound I-13, (R)-ethyl 1-(2-(5-fluoro-2-methoxyphenyl)-2-(2-methoxy-ethoxy)ethyl)-5-methyl-3-(2-methyl-1-oxo-1-(pyrrolidin-1-yl)propan-2-yl)-2,4-dioxo-1,2,3,4-tetrahydrothieno[2,3-d]pyrimidine-6-carboxylate] | – | 2.1 to 4 (≈ 3.39 to 6.45 µM) | 2.1 to 4 (≈ 3.39 to 6.45 µM) | 2.1 to 4 (≈ 3.39 to 6.45 µM) | 0.6 to 3 | > 4.1 | > 4.1 | > 4.1
6 | CCOC(=O)c1sc2c(c1C)c(=O)n(C(C)(C)C(N)=O)c(=O)n2C[C@H](OCCO)c1cc(F)ccc1OC [Compound I-17, (R)-ethyl 3-(1-amino-2-methyl-1-oxopropan-2-yl)-1-(2-(5-fluoro-2-methoxyphenyl)-2-(2-hydroxyethoxy)ethyl)-5-methyl-2,4-dioxo-1,2,3,4-tetrahydro-thieno[2,3-d]pyrimidine-6-carboxylate] | 0.3 to 3 | 2.1 to 4 (≈ 3.81 to 7.25 µM) | 1.1 to 2 (≈ 1.99 to 3.63 µM) | 2.1 to 4 (≈ 3.81 to 7.25 µM) | 0.6 to 3 | > 4.1 | > 4.1 | > 4.1
7 | CCOC(=O)c1sc2c(c1C)c(=O)n(C(C)(C)C(N)=O)c(=O)n2C[C@H](OCCC#N)c1cc(F)ccc1OC [Compound I-14, (R)-ethyl 3-(1-amino-2-methyl-1-oxopropan-2-yl)-1-(2-(2-cyanoethoxy)-2-(5-fluoro-2-methoxyphenyl)ethyl)-5-methyl-2,4-dioxo-1,2,3,4-tetrahydro-thieno[2,3-d]pyrimidine-6-carboxylate] | 0.3 to 3 | 2.1 to 4 (≈ 3.75 to 7.14 µM) | 1.1 to 2 (≈ 1.96 to 3.57 µM) | 2.1 to 4 (≈ 3.75 to 7.14 µM) | 0.6 to 3 | > 4.1 | > 4.1 | > 4.1
8 | CCOC(=O)c1sc2c(c1C)c(=O)n(C(C)(C)C(=O)NC(C)C)c(=O)n2C[C@H](OCC(C)(C)C#N)c1ccccc1OC [Compound I-38, ethyl (R)-1-(2-(2-cyano-2-methylpropoxy)-2-(2-methoxyphenyl)ethyl)-3-(1-(isopropylamino)-2-methyl-1-oxopropan-2-yl)-5-methyl-2,4-dioxo-1,2,3,4-tetrahydrothieno[2,3-d]pyrimidine-6-carboxylate] | 0.3 to 3 | > 4.1 | 2.1 to 4 (≈ 3.43 to 6.53 µM) | 0.25 to 1 (≈ 0.408 to 1.63 µM) | – | – | – | –
9 | CCOC(=O)c1sc2c(c1C)c(=O)n(C(C)(C)C(=O)N1CCCCC1)c(=O)n2C[C@H](OC1CCOCC1)c1ccccc1OC [Compound I-2, ethyl (R)-1-(2-(2-methoxyphenyl)-2-((tetrahydro-2H-pyran-4-yl)oxy)ethyl)-5-methyl-3-(2-methyl-1-oxo-1-(piperidin-1-yl)propan-2-yl)-2,4-dioxo-1,2,3,4-tetrahydrothieno[2,3-d]pyrimidine-6-carboxylate] | 0.3 to 3 | 0.25 to 1 (≈ 0.39 to 1.56 µM) | 0.25 to 1 (≈ 0.39 to 1.56 µM) | 0.25 to 1 (≈ 0.39 to 1.56 µM) | 0.6 to 3 | 0.25 to 1 (≈ 0.39 to 1.56 µM) | 0.25 to 1 (≈ 0.39 to 1.56 µM) | 0.25 to 1 (≈ 0.39 to 1.56 µM)
10 | CCOC(=O)c1sc2c(c1C)c(=O)n([C@H](C)C(=O)N1CCCC1)c(=O)n2C[C@H](OCCC#N)c1cc(F)ccc1OC [Compound I-24, ethyl 1-((R)-2-(2-cyanoethoxy)-2-(5-fluoro-2-methoxy-phenyl)ethyl)-5-methyl-2,4-dioxo-3-((R)-1-oxo-1-(pyrrolidin-1-yl)propan-2-yl)-1,2,3,4-tetrahydrothieno[2,3-d]pyrimidine-6-carboxylate] | 0.3 to 3 | 2.1 to 4 (≈ 3.5 to 6.66 µM) | 0.25 to 1 (≈ 0.416 to 1.66 µM) | 2.1 to 4 (≈ 3.5 to 6.66 µM) | – | – | – | –
11 | CCOC(=O)c1sc2c(c1C)c(=O)n(C(C)(C)C(=O)N1CCCC1)c(=O)n2C[C@H](OCCC#N)c1cc(F)ccc1OC [Compound I-16, (R)-ethyl 1-(2-(2-cyanoethoxy)-2-(5-fluoro-2-methoxy-phenyl)ethyl)-5-methyl-3-(2-methyl-1-oxo-1-(pyrrolidin-1-yl)propan-2-yl)-2,4-dioxo-1,2,3,4-tetrahydrothieno[2,3-d]pyrimidine-6-carboxylate] | 0.3 to 3 | 2.1 to 4 (≈ 3.42 to 6.51 µM) | 0.25 to 1 (≈ 0.407 to 1.63 µM) | 2.1 to 4 (≈ 3.42 to 6.51 µM) | 0.6 to 3 | > 4.1 | > 4.1 | > 4.1
12 | CCNC(=O)C(C)(C)n1c(=O)c2c(C)c(C(=O)OCC)sc2n(C[C@H](O)c2cc(F)ccc2OC)c1=O [Compound I-39, ethyl (R)-3-(1-(ethylamino)-2-methyl-1-oxopropan-2-yl)-1-(2-(5-fluoro-2-methoxyphenyl)-2-hydroxyethyl)-5-methyl-2,4-dioxo-1,2,3,4-tetrahydrothieno[2,3-d]pyrimidine-6-carboxylate] | 0.3 to 3 | 0.25 to 1 (≈ 0.467 to 1.87 µM) | 2.1 to 4 (≈ 3.92 to 7.47 µM) | 2.1 to 4 (≈ 3.92 to 7.47 µM) | – | – | – | –
13 | CCOC(=O)c1sc2c(c1C)c(=O)n(C(C)(C)C(=O)NC(C)C)c(=O)n2C[C@H](OCCC#N)c1cc(F)ccc1OC [Compound I-15, (R)-ethyl 1-(2-(2-cyanoethoxy)-2-(5-fluoro-2-methoxy-phenyl)ethyl)-3-(1-(isopropylamino)-2-methyl-1-oxopropan-2-yl)-5-methyl-2,4-dioxo-1,2,3,4-tetrahydrothieno[2,3-d]pyrimidine-6-carboxylate] | 0.3 to 3 | 0.25 to 1 (≈ 0.415 to 1.66 µM) | 2.1 to 4 (≈ 3.48 to 6.64 µM) | 0.25 to 1 (≈ 0.415 to 1.66 µM) | 0.6 to 3 | 0.25 to 1 (≈ 0.415 to 1.66 µM) | 0.25 to 1 (≈ 0.415 to 1.66 µM) | 0.25 to 1 (≈ 0.415 to 1.66 µM)
14 | CCOC(=O)c1sc2c(c1C)c(=O)n(C(C)(C)C(=O)NC(C)C)c(=O)n2C[C@H](OCC(C)(C)C#N)c1cc(F)ccc1OC [Compound I-37, ethyl (R)-1-(2-(2-cyano-2-methylpropoxy)-2-(5-fluoro-2-methoxyphenyl)ethyl)-3-(1-(isopropylamino)-2-methyl-1-oxopropan-2-yl)-5-methyl-2,4-dioxo-1,2,3,4-tetrahydrothieno[2,3-d]pyrimidine-6-carboxylate] | 0.3 to 3 | 2.1 to 4 (≈ 3.33 to 6.34 µM) | 2.1 to 4 (≈ 3.33 to 6.34 µM) | 0.25 to 1 (≈ 0.396 to 1.59 µM) | – | – | – | –
15 | CCOC(=O)c1sc2c(c1C)c(=O)n(C(C)(C)C(=O)NC(C)C)c(=O)n2C[C@H](OCC#N)c1cc(F)ccc1OC [Compound I-33, ethyl (R)-1-(2-(cyanomethoxy)-2-(5-fluoro-2-methoxy-phenyl)ethyl)-3-(1-(isopropylamino)-2-methyl-1-oxopropan-2-yl)-5-methyl-2,4-dioxo-1,2,3,4-tetrahydrothieno[2,3-d]pyrimidine-6-carboxylate] | 0.3 to 3 | 2.1 to 4 (≈ 3.57 to 6.8 µM) | 2.1 to 4 (≈ 3.57 to 6.8 µM) | 0.25 to 1 (≈ 0.425 to 1.7 µM) | – | – | – | –
16 | CCOC(=O)c1sc2c(c1C)c(=O)n(C(C)(C)C(=O)NC(C)C)c(=O)n2C[C@H](OCCS(C)(=O)=O)c1cc(F)ccc1OC [Compound I-36, ethyl (R)-1-(2-(5-fluoro-2-methoxyphenyl)-2-(2-(methylsulfonyl)ethoxy)ethyl)-3-(1-(isopropylamino)-2-methyl-1-oxopropan-2-yl)-5-methyl-2,4-dioxo-1,2,3,4-tetrahydrothieno[2,3-d]pyrimidine-6-carboxylate] | 0.3 to 3 | 2.1 to 4 (≈ 3.2 to 6.1 µM) | 2.1 to 4 (≈ 3.2 to 6.1 µM) | 0.25 to 1 (≈ 0.381 to 1.52 µM) | – | – | – | –

From US11098055B2, “Ester ACC inhibitors and uses thereof” (Gilead Apollo, LLC, priority 2015, dated 2021)
